Measurements published in patent US20190030114A1, “ISOFORM-SPECIFIC CALPAIN INHIBITORS, METHODS OF IDENTIFICATION, AND USES THEREOF” (WESTERN UNIVERSITY OF HEALTH SCIENCES, priority 2014, published 2019).

Columns and labels:
[1] = system: stratum radiatum of field CA1 in acute rat hippocampal slices; experiment: field EPSP recording, TBS-induced LTP in acute rat hippocampal slices; format: cell-based; details: for LTP after theta-burst stimulation: 200 nM, preincubation prior to TBS
Protocol: Results are expressed as percent of the average values over a 10 min baseline period and are means±S.E.M. of the indicated number of experiments.
FIG. 3A: Field recording of excitatory postsynaptic potentials (EPSPs) performed in stratum radiatum of field CA1 in acute rat hippocampal slices in the presence or absence of 200 nM of the calpain-2 selective inhibitor, Formula I, (mCalp-I in the drawing). Preincubation with mCalp-I enhances LTP. Results are expressed as percent of the average values over a 10 min baseline period and are means±S.E.M. of the indicated number of experiments.
Results are expressed as percent of the average values over the 10 min baseline period and are means±S.E.M. of the indicated number of experiments.
Generic calpain inhibitors block LTP when administered before LTP induction. Field recording of excitatory postsynaptic potentials (EPSPs; FIG. 2) was performed in stratum radiatum of field CA1 in acute rat hippocampal slices.
A calpain 2-selective inhibitor enhances LTP. […]

retina (GCL, IPL, RGC) = experiment: acute IOP elevation (acute angle closure glaucoma model), systemic (i.p.) C2l; format: in vivo, mice
SBDP = SBDP formation in IPL after acute IOP elevation, intravitreal C2l in calpain-1 KO mice; format: in vivo; details: Mus musculus, intravitreal (1 μl) 2 h after IOP elevation, SBDP at 4 h, read-out: apparent IC50, inhibition of SBDP formation in IPL
Protocol: We used intravitreal C2l injection in order to locally deliver C2l to retina. First, we tested the delivery efficiency by injecting different doses of C2l intravitreally 2 h after IOP elevation in calpain-1 KO mice and analyzing SBDP levels in IPL at 4 h (FIG. 12A and B). […] In all subsequent experiments, 20 μM (1 μl) was used to examine the neuroprotective effects of intravitreal C2l injection. Eyes were collected 3 days after surgery for H&E staining.

calpain-1 = biological target: T1, calpain-1 (Homo sapiens, UniProt P07384); details: Li et al, 1996; read-out: Ki for calpain-1 (μ-calpain), literature; cited from earlier work
T1 sequence (P07384 1-714): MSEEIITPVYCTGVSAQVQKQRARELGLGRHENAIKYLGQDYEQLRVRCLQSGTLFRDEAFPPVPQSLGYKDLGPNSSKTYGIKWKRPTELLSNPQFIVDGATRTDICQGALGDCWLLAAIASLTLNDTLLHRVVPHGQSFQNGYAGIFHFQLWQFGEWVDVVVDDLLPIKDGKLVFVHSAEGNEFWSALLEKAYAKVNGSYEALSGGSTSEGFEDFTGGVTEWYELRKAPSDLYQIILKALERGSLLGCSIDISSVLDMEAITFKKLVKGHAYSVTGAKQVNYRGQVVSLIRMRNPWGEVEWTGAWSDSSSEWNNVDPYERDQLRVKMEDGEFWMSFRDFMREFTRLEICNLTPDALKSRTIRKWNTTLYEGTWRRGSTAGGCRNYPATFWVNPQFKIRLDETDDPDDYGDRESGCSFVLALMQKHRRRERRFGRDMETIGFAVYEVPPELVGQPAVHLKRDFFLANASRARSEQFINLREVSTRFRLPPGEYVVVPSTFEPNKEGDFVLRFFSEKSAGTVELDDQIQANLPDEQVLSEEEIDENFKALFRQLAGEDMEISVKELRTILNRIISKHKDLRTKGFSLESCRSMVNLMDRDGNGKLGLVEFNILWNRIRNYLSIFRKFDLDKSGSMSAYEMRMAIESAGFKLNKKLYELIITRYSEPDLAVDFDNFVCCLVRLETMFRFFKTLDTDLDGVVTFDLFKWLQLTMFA
T1 sequence (P04632 1-268 partner): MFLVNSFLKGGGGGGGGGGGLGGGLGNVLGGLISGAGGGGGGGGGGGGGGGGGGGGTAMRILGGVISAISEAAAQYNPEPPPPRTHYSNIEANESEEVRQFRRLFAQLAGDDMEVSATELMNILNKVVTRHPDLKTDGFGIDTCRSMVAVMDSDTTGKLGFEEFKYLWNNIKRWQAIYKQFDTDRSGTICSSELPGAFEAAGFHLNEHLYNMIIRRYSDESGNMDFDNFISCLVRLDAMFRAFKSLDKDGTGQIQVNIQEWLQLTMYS

[2] = injected 2 h after IOP elevation, WT mice, n=5

CCC(NC(=O)C(CC(C)C)NC(=O)OCc1ccccc1)C(=O)C(=O)NCc1cc(OC)cc(OC)c1 (racemic) [Formula 1, Z-Leu-Abu-CONH—CH2-C6H3 (3, 5-(OMe)2)]
LTP after theta-burst stimulation [1]: enhances it
LTP after theta-burst stimulation ([1]; listed as mCalp-I): enhances LTP
LTP during the consolidation phase ([1]; applied from 10 min post TBS to 1 hour post TBS): enhanced LTP
survival rate of RGC versus vehicle (retina (GCL, IPL, RGC); injected 2 h after IOP elevation): significantly improved
RGC counts (brn-3a), IOP-elevated eye (retina (GCL, IPL, RGC); [2]): 37.1±2.5 cells/mm
RGC counts (brn-3a), sham eye (retina (GCL, IPL, RGC); [2]): 45.2±5.0 cells/mm
changes in PHLPP1 and pAkt after IOP elevation (retina (GCL, IPL, RGC); retina 3 h after IOP elevation, 0.3 mg/kg at 2 h): present in C2l-injected WT mice
IC50 (SBDP): 8 µM
Ki (calpain-1): 2.3 µM
